Source: ChEMBL document CHEMBL3507680, “University of Dundee, Gates Library screen for HepG2 cell viability”

Assay: Human HepG2 cell viability assay in 384 well format
Assay type: toxicity, cell-based
Set-up: dose 125 nL, time 70.5 hour; cytotoxicity at 70.5 h: concentration not given beside the values
Conditions: HepG2 cells, read-out: Inhibition
Work on `CN(Cc1cnn(C)c1)C(=O)C1CCCN1Cc1ccccn1` (stereo unspecified) yielded a cytotoxicity at 70.5 h of 26.2%. With `Cc1noc(CCCC(=O)NCC2CCS(=O)(=O)C2)n1` (stereo unspecified) the cytotoxicity at 70.5 h was 1.41%. Work on `CCc1nc(CN2CCCN(C(=O)CCOC(C)C)CC2)cs1` yielded a cytotoxicity at 70.5 h of 0.154%. In the case of `Cc1cc(CN2CCOC(CNc3cccnn3)C2)on1` (stereo unspecified), the cytotoxicity at 70.5 h is reported as -0.746%. For `Cc1cccc(-c2ccc(C(=O)NCC(C)(C)C(N)=O)c(=O)[nH]2)c1`, the cytotoxicity at 70.5 h was -18.8%. `COc1ccc(Cl)cc1NCC(=O)NCCc1ccccn1` gave a cytotoxicity at 70.5 h of 5.95%. In the case of `CC(C)C(C(=O)N1CCC(N(C)c2cccnn2)CC1)n1cncn1` (stereo unspecified), the cytotoxicity at 70.5 h is reported as -12.6%. For `Cc1ccc(NC2CCN(C(=O)CC3CCCO3)CC2)nn1` (stereo unspecified), the cytotoxicity at 70.5 h was -11.8%. For `CC(C(=O)N1CCC(Nc2cccnn2)CC1)n1ccnc1` (stereo unspecified), the cytotoxicity at 70.5 h was -8.6%. Molecule `Cc1nnc(CN2CCCC(c3cc(C(N)=O)[nH]n3)C2)o1` (stereo unspecified) has a cytotoxicity at 70.5 h of -15.2%. With `c1ccc(CNC2CCc3ncnn3C2)nc1` (stereo unspecified) the cytotoxicity at 70.5 h was 6.6%. Molecule `CC(NCc1c(C(C)C)nn(C)c1N1CCOCC1)C(N)=O` (stereo unspecified) has a cytotoxicity at 70.5 h of 15.3%. With `CC(C)c1nn(C)c(N2CCOCC2)c1CNCC(=O)N(C)C` the cytotoxicity at 70.5 h was -6.07%. `CCN(CC)C(=O)C(c1ccccc1)N1CCn2c(C)nnc2C1` (stereo unspecified) showed a cytotoxicity at 70.5 h of 2.24%. In the case of `c1ccc(-n2ncc(CNC3CCc4ncnn4C3)n2)cc1` (stereo unspecified), the cytotoxicity at 70.5 h is reported as -10.4%. In the case of `c1ccc(-c2cnc(CNC3CCCN(c4cccnn4)C3)o2)cc1` (stereo unspecified), the cytotoxicity at 70.5 h is reported as -4.5%. `O=C(NCCOc1ccc2c(c1)CCC2)N1CCS(=O)(=O)CC1` gave a cytotoxicity at 70.5 h of 23.8%. Work on `O=C(Cc1ccccc1Cl)N1CCCC(n2cncn2)C1` (stereo unspecified) yielded a cytotoxicity at 70.5 h of -7.27%. With `Cc1ccc2oc(C(=O)N3CCCC(n4nc(C)cc4C)C3)cc2n1` (stereo unspecified) the cytotoxicity at 70.5 h was -2.12%. In the case of `Cc1ccc(NC(=O)C2CSCN2C(=O)c2cc[nH]n2)c(C)c1` (stereo unspecified), the cytotoxicity at 70.5 h is reported as -2.12%. For `Cc1cc(CNc2cc(Cl)ccc2Cl)no1`, the cytotoxicity at 70.5 h was -14.1%. Molecule `CC(C)NC(=O)C(c1ccccc1)N1CCn2c(nnc2C2CC2)C1` (stereo unspecified) has a cytotoxicity at 70.5 h of 2.95%. With `Cc1ccccc1OCCC(=O)N1CCCC(n2cncn2)C1` (stereo unspecified) the cytotoxicity at 70.5 h was -6.17%. With `O=C(COc1ccc2c(c1)CCC2)NS(=O)(=O)c1cncc(Br)c1` the cytotoxicity at 70.5 h was -2.54%. `Cc1ccoc1-c1nnc(CN2CCCC(Cn3cncn3)C2)o1` (stereo unspecified) showed a cytotoxicity at 70.5 h of -6.83%. For `CNC(=O)c1ccc(CN(C(=O)c2scnc2C)C2CC2)cc1`, the cytotoxicity at 70.5 h was 29.9%. For `CNC(=O)CCCNCc1c(C)nn(C)c1N(C)C`, the cytotoxicity at 70.5 h was -1.74%. `COc1ccc(-c2nc(CN3CCc4c(ncn4C)C3)cs2)cc1` gave a cytotoxicity at 70.5 h of 21.3%. In the case of `CCN(CC1CCOC1)C(=O)Nc1ccc(OC)nc1` (stereo unspecified), the cytotoxicity at 70.5 h is reported as 24.3%. In the case of `CCOc1ccc(Cl)c(C(=O)N(C)C)n1`, the cytotoxicity at 70.5 h is reported as -2.99%. Molecule `Cc1ccc(CC(=O)N2CCc3nnc(N(C)C)cc3C2)cn1` has a cytotoxicity at 70.5 h of -3.16%. `Cn1ccc(CN2CCCC2c2ccc3c(c2)OCCCO3)cc1=O` (stereo unspecified) gave a cytotoxicity at 70.5 h of -12.3%. `COc1ccc(CC(=O)N2CCc3nnc(N(C)C)cc3C2)cc1F` showed a cytotoxicity at 70.5 h of -2.52%. For `CCC1c2ccsc2CCN1C(=O)NCCNc1ncccn1` (stereo unspecified), the cytotoxicity at 70.5 h was 0.287%. For `COc1cccc(-n2nnc(C(=O)N3CCNC(=O)C3)c2C)c1`, the cytotoxicity at 70.5 h was 28%. Work on `CN(C)c1cc(C(=O)N2CCN(S(C)(=O)=O)CC2)ccn1` yielded a cytotoxicity at 70.5 h of -1%. `CCC1c2ccsc2CCN1C(=O)NCc1cc[nH]n1` (stereo unspecified) showed a cytotoxicity at 70.5 h of -1.24%. For `O=C(NCC1CCOC1)c1ccc(OCC(F)(F)F)nc1` (stereo unspecified), the cytotoxicity at 70.5 h was -5.4%. Molecule `CCN(CC1CCOC1)C(=O)Nc1ccc(N2CCCC2)nc1` (stereo unspecified) has a cytotoxicity at 70.5 h of -0.947%. With `CC(Nc1cccc(CN2CCOC2=O)c1)C(=O)Nc1ccccc1F` (stereo unspecified) the cytotoxicity at 70.5 h was -7.83%. In the case of `CC(C)N(Cc1cccc(F)c1)Cc1nc2c(cnn2C)c(=O)[nH]1`, the cytotoxicity at 70.5 h is reported as 0.718%. Work on `CC(C)CCN(C)C(=O)c1nc(S(C)(=O)=O)n2ccccc12` yielded a cytotoxicity at 70.5 h of 4.51%. For `CNC(=O)C1CCC(NC(=O)N(C)Cc2c(C)noc2C)CC1` (stereo unspecified), the cytotoxicity at 70.5 h was 31.6%. With `Cc1noc(C)c1CN(C)C(=O)NC1CCN(C2CC2)CC1` the cytotoxicity at 70.5 h was -2.65%. With `Cc1ccc(Cl)cc1N1CCC(CNC(=O)CC(F)(F)F)C1` (stereo unspecified) the cytotoxicity at 70.5 h was 1.39%. With `Cn1cc(C(=O)NC2CCN(Cc3ccn(C)c(=O)c3)CC2)cn1` the cytotoxicity at 70.5 h was -14%.
